Laboratory results taken from US20190048052A1, “ANTI-MICROBIAL PEPTIDES AND COATINGS” (Board of Regents of the University of Nebraska, priority 2016, published 2019).
In brackets after ≈: the same amount, converted by molar mass. Where two headings read alike, the source gives them in different places. Residues, ends and D or L forms follow the SMILES beside them.

Assays:
S. aureus USA300 [1] = type: cell-based, Staphylococcus aureus; settings: for loss in activity compared to the WT: MRSA USA300
Protocol: (§1) The antimicrobial activity of peptides was evaluated using a standard broth microdilution protocol. In brief, exponential phase bacteria at 10^6 CFU were incubated with serially diluted peptides overnight for ˜20 hours at 37° C. The plates were read on a ChroMate® 4300 Microplate Reader at 630 nm (GMI, Ramsey, Minn.).

E. coli ATCC 25922 = type: cell-based, Escherichia coli; settings: ATCC 25922, 20 h
Protocol: as §1

human red blood cells = experiment: Hemolytic ability (Example 3); type: cell-based; settings: concentration that causes 50% hemolysis
Protocol: Hemolytic analysis of selected peptides was performed using an established protocol. Briefly, human blood cells (UNMC Blood Bank) were washed three times with phosphate buffer saline (PBS) and diluted to a 2% solution. After peptide treatment, incubation at 37° C. for one hour, and centrifugation at 13,000 rpm, aliquots of the supernatant were transferred to a fresh 96-well microplate. To assess peptide cytotoxicity, the amount of hemoglobin released was measured at 545 nm. The percent lysis was calculated by assuming 100% release when human blood cells were treated with 1% TRITON™ X-100, and 0% release when incubated with PBS buffer.

S. aureus USA300 [2] = type: cell-based, Staphylococcus aureus
Protocol: Two types of experiments were conducted to evaluate the anti-biofilm activity of these peptides against S. aureus USA300 grown under a static condition for 24 hours to form established biofilms in presence of tryptic soy broth (TSB). The experiment was set up using a flat bottom, 96-well, polystyrene microtiter plates (Corning, COSTAR). In short, S. aureus USA300 (10^5 CFU/mL) in fresh TSB media was made from an exponentially growing culture. 200 μL of this bacterial culture was added to each well of the microtiter plates. The plates are then incubated at 37° C. for 24 hours to allow biofilm formation. Media was then carefully removed followed by washing with sterile 1×PBS to remove any unattached bacteria. Solution containing μL of 10× peptide solution and 180 μL of fresh TSB were added. The plates were again incubated at 37° C. for another 24 hours. To measure the extent of biofilm disruption by the peptides as a function of biofilm reduction, crystal violet staining was performed. Media was pipetted out and the wells were carefully washed with 200 μL of PBS to remove the loosely attached cells. Subsequently, 200 μL of 99% methanol was added for fixation and the plates were allowed to sit for 15 minutes. The plates were finally aspirated and dried. Lastly, staining was done with 200 μL of 1% crystal violet in water for 5 minutes. Excess stain was gently rinsed off with tap water, and plates were air-dried. Further, stains were solubilized in 200 μL of 33% glacial acetic acid followed by colorimetric measurement at 600 nm on a Chromate® microtiter plate reader. The amounts of biofilm growth with and without compound treatments were calculated.
In addition, live cell contents of the peptide acted biofilms was estimated by XTT [2,3-bis(2-methyloxy-4-nitro-5-sulfophenyl)-2H-tertazolium-5-carboxanilide]assay by following the manufacturer's instructions with modifications. A 10% XTT solution in TSB media was added to each well and the plates were again incubated for 2 hours at 37° C. Absorbance at 450 nm (only media with XTT containing wells served as the blank) was obtained using Chromate® microtiter plate reader. Percentage of biofilm reduction for the peptide was plotted assuming 100% biofilm growth is achieved on the bacterial wells without peptide treatment.

E. coli K12 = type: cell-based, Escherichia coli; settings: K12
Protocol: (§2) The bacterial strains used here included Gram-positive bacteria Staphylococcus aureus USA300 LAC, Staphylococcus epidermidis 1457, Bacillus subtilis 168, and Gram-negative Escherichia coli K12. Clinical strains of S. aureus, including Mu50, UAMS-1 and Newman, were also evaluated.
(§3) The antimicrobial activity of peptides was evaluated using a standard broth microdilution protocol (Wang, G. (2008) J. Biol. Chem., 283:32637-32643). In brief, exponential phase bacteria at 10^6 CFU were incubated with serially diluted peptides overnight for ˜20 hours at 37° C. The plates were read on a ChroMate® 4300 Microplate Reader at 630 nm (GMI, Ramsey, Minn.). […] In addition, the effects of human serum (up to 10%), pH (6.8, 7.4 and 8.0) and 150 mM sodium chloride (NaCl) on MICs against S. aureus USA300 were also evaluated (Mishra et al. (2015) RSC Advances 5:59758-59769).

S. epidermidis 1457 = type: cell-based, Staphylococcus epidermidis
Protocol: as §2, §3

B. subtilis 168 = type: cell-based, Bacillus subtilis
Protocol: as §2, §3

S. aureus USA300 [3] = type: cell-based, Staphylococcus aureus; remark: listed apart in the source
Protocol: as §2, §3

S. aureus USA300 [4] = type: cell-based, Staphylococcus aureus; settings: USA300
Protocol: The minimal bactericidal concentration (MBC) was determined by plating 50 μl of the content in the clear wells of the above MIC assays. MBC was determined on the petri dishes without bacterial colony formation after overnight growth (Wang et al. (2012) Biochemistry 51:653-664).

S. aureus USA300 [5] = experiment: Propidium iodide membrane permeation; type: cell-based, Staphylococcus aureus
Protocol: Fluorescence spectroscopy was also used to follow bacterial killing. In brief, a serially diluted 10× peptide (10 μL) was made in 96-well coming COSTAR microtiter plates. Propidium iodide (2 μL) was added at 50 μM to each well which was finally incubated with S. aureus USA300 bacteria (88 μL at a final OD600 ˜0.1) with continuous shaking at 100 rpm, 37° C. in a FLUOstar® Omega (BMG LABTECH Inc, NC) microplate reader. The plates were read every 5 minutes for a total duration of 2 hours with excitation and emission wavelengths at 584 nm and 620 nm respectively. Plots were made using averaged readings from duplicated experiments after subtraction of the media control.

SMILES | loss in activity compared to the WT (S. aureus USA300 [1]) | S. aureus (MIC) (S. aureus USA300 [1]; S. aureus USA300) [µM] | E. coli (MIC) (E. coli ATCC 25922) [µM] | HL50 (human red blood cells) [µM] | also measured
CC[C@H](C)[C@H](NC(=O)[C@H](CCCNC(=N)N)NC(=O)[C@H](CCCNC(=N)N)NC(=O)[C@H](CC(C)C)NC(=O)[C@H](Cc1c[nH]c2ccccc12)NC(=O)[C@H](Cc1c[nH]c2ccccc12)NC(=O)[C@@H](N)CCCNC(=N)N)C(=O)N[C@@H](Cc1c[nH]c2ccccc12)C(N)=O [Peptide W1R, RWWLRRIW] (H-RWWLRRIW-NH2; N-terminus assumed) | four-fold | 12.5 | 25 | >200 | killing in preformed biofilms (XTT) (S. aureus USA300 [2]; 25 μM): neither W1R nor W3R was able to kill
CC[C@H](C)[C@H](NC(=O)[C@H](CCCNC(=N)N)NC(=O)[C@H](CCCNC(=N)N)NC(=O)[C@H](CC(C)C)NC(=O)[C@H](Cc1c[nH]c2ccccc12)NC(=O)[C@H](CCCNC(=N)N)NC(=O)[C@@H](N)Cc1c[nH]c2ccccc12)C(=O)N[C@@H](Cc1c[nH]c2ccccc12)C(N)=O [Peptide W2R, WRWLRRIW] (H-WRWLRRIW-NH2; N-terminus assumed) |  |  | 25 | 100 | S. aureus (MIC) (S. aureus USA300 [1]; USA300, 20 h): 6.2 µM; killing in preformed biofilms (XTT) (S. aureus USA300 [2]; 12.5 μM): 80%
CC[C@H](C)[C@H](NC(=O)[C@H](CCCNC(=N)N)NC(=O)[C@H](CCCNC(=N)N)NC(=O)[C@H](CC(C)C)NC(=O)[C@H](CCCNC(=N)N)NC(=O)[C@H](Cc1c[nH]c2ccccc12)NC(=O)[C@@H](N)Cc1c[nH]c2ccccc12)C(=O)N[C@@H](Cc1c[nH]c2ccccc12)C(N)=O [Peptide W3R, WWRLRRIW] (H-WWRLRRIW-NH2; N-terminus assumed) | four-fold | 12.5 | 25 | >200 | killing in preformed biofilms (XTT) (S. aureus USA300 [2]; 25 μM): neither W1R nor W3R was able to kill
CC[C@H](C)[C@H](NC(=O)[C@H](CCCNC(=N)N)NC(=O)[C@H](CCCNC(=N)N)NC(=O)[C@H](CC(C)C)NC(=O)[C@H](Cc1c[nH]c2ccccc12)NC(=O)[C@H](Cc1c[nH]c2ccccc12)NC(=O)[C@@H](N)Cc1c[nH]c2ccccc12)C(=O)N[C@@H](CCCNC(=N)N)C(N)=O [Peptide W8R, WWWLRRIR] (H-WWWLRRIR-NH2; N-terminus assumed) | four-fold | 12.5 | 25 | >200 | killing in preformed biofilms (XTT) (S. aureus USA300 [2]; 12.5 μM): 20%
CC[C@H](C)[C@H](NC(=O)[C@H](CCCNC(=N)N)NC(=O)[C@H](CO)NC(=O)[C@H](CC(C)C)NC(=O)[C@H](Cc1c[nH]c2ccccc12)NC(=O)[C@H](Cc1c[nH]c2ccccc12)NC(=O)[C@@H](N)Cc1c[nH]c2ccccc12)C(=O)N[C@@H](Cc1c[nH]c2ccccc12)C(N)=O [TetraF2W, WWWLSRIW] (H-WWWLSRIW-NH2; N-terminus and C-terminus assumed) |  |  |  |  | MIC E. coli K12 (E. coli K12): >100 µM; MIC S. epidermidis 1457 (S. epidermidis 1457): >50 µM; MIC B. subtilis 168 (B. subtilis 168): 6.2 µM (≈ 7.64 µg/mL); fold more potent than temporin-SHf (anti-MRSA) (S. aureus USA300 [3]; S. aureus USA300): 4-8 fold; MIC S. aureus USA300 (S. aureus USA300 [3]; USA300): 3.1 to 6.2 µM; MBC S. aureus USA300 (S. aureus USA300 [4]): 6.2 µM (≈ 7.64 µg/mL)
CCCCCCCCCC(=O)N[C@@H](Cc1c[nH]c2ccccc12)C(=O)N[C@H](CC(N)=O)C(=O)N[C@@H](CC(=O)O)C(=O)N[C@@H]1C(=O)NCC(=O)N[C@@H](CCCN)C(=O)N[C@@H](CC(=O)O)C(=O)N[C@H](C)C(=O)N[C@@H](CC(=O)O)C(=O)NCC(=O)N[C@H](CO)C(=O)N[C@@H]([C@H](C)CC(=O)O)C(=O)N[C@@H](CC(=O)c2ccccc2N)C(=O)O[C@@H]1C [daptomycin, reference compound] |  |  |  |  | propidium iodide fluorescence change after treatment (S. aureus USA300 [5]): rapid increase in fluorescence
CN[C@H](CC(C)C)C(=O)N[C@H]1C(=O)N[C@@H](CC(N)=O)C(=O)N[C@H]2C(=O)N[C@H]3C(=O)N[C@H](C(=O)N[C@H](C(=O)O)c4cc(O)cc(O)c4-c4cc3ccc4O)[C@H](O)c3ccc(c(Cl)c3)Oc3cc2cc(c3O[C@@H]2O[C@H](CO)[C@@H](O)[C@H](O)[C@H]2O[C@H]2C[C@](C)(N)[C@H](O)[C@H](C)O2)Oc2ccc(cc2Cl)[C@H]1O [vancomycin, reference compound] |  |  |  |  | propidium iodide fluorescence change after treatment (S. aureus USA300 [5]): no increase in fluorescence
